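Where inhibition never reached the appropriate level, the endpoint shown equals the highest concentration tested. Otherwise, values were interpolated linearly from a five-concentration, 48-hour dose response in 96-well plates. GI50 = concentration required for 50% inhibition of growth.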 Calls of active or inactive are those of the source. Rule as the data show it: active = GI50 up to about 1.1 µM and inactive = higher.

Test in all cases: NCI anticancer screen, dose series, 48 h
Experiment [1] deals with A549.
Experiment [2] deals with BT-549.
Experiment [3] relates to CCRF-CEM.
The test system of experiment [4] is EKVX.
Experiment [5] has as its system HCT-15.
For experiment [6], the system named is KM12.
Experiment [7] concerns MDA-N.
In experiment [8] the test system is MOLT-4.
For experiment [9], the system named is NCI-H226.
For experiment [10], the system named is NCI-H23.
Experiment [11] concerns OVCAR-8.
For experiment [12], the system named is SK-OV-3.
Experiment [13] deals with T47D.
Experiment [14] has as its system SF-539.
The subject of experiment [15] is HL-60.
Experiment [16] deals with SK-MEL-2.

Turning to `OCCN(CCO)c1ncnc2[nH]cnc12`, the GI50 in experiment [1] is > 100 µM (inactive); in experiment [2], > 100 µM (inactive); in [3], > 100 µM (inactive); in experiment [4] it was 68.5 µM (inactive); in experiment [5], more than 100 µM; in experiment [6] it was > 100 µM (inactive). For the same compound, the GI50 in [7], in experiment [8], in [9], in experiment [10], in experiment [11] and in experiment [12] was > 100 µM (inactive) in each case. For the same compound, the GI50 in experiment [13] was > 100 µM (inactive).
For the compound `O=C(/C=C/c1cccs1)c1ccc(C(=O)/C=C/c2cccs2)cc1`, the GI50 in experiment [1] is > 100 µM (inactive); in experiment [2] it was > 100 µM (inactive); in [4] it was > 100 µM (inactive); in [5], more than 100 µM; in experiment [6], > 100 µM (inactive); in [8], > 100 µM (inactive). The GI50 in experiment [9], in [10], in experiment [11], in experiment [14], in experiment [12] and in experiment [13] was > 100 µM (inactive) in each case.
For `Cc1ccc(/C=C2\Cc3cccc(C)c3C2=O)c(C(=O)O)c1`, the GI50 is 74.3 µM (inactive) in experiment [1]; 62.7 µM (inactive) in experiment [2]; 36.9 µM (inactive) in experiment [3]; > 100 µM (inactive) in experiment [4]; 39.2 µM in [5]; 85.7 µM (inactive) in experiment [15]. The GI50 was 55.5 µM (inactive) in experiment [6]; > 100 µM (inactive) in experiment [7]; 48.2 µM (inactive) in experiment [8]; > 100 µM (inactive) in [9]; > 100 µM (inactive) in experiment [10]; 97.7 µM (inactive) in experiment [11]. Further, the GI50 in experiment [14] is 74.8 µM (inactive); in experiment [13] it was 42.7 µM (inactive).
Take `Clc1ccc(C(Cc2ccccc2)c2c(Cl)nc(N3CCNCC3)nc2Cl)cc1` (stereo not drawn): the GI50 in [1] was 16.1 µM (inactive); in experiment [2], 21.3 µM (inactive); in experiment [3], 7.11 µM (inactive); in [4] it was 17.9 µM (inactive); in [5], 4.06 µM; in experiment [15], 2.26 µM (inactive). Moreover, the GI50 in experiment [6] is 7.89 µM (inactive); in experiment [8], 4.01 µM (inactive); in [9], 22.8 µM (inactive); in experiment [10] it was 18.2 µM (inactive); in experiment [11], 12.1 µM (inactive); in experiment [14], 14.5 µM (inactive). Further, the figures for the GI50 in [16], in experiment [12] and in [13] were 16.8 µM (inactive), 17.7 µM (inactive) and 12.8 µM (inactive), respectively.
Consider `CCN(CC)Cc1sc2nc3ccccc3n2c1-c1ccc(OC)cc1`, for which the GI50 in experiment [1] was 31.8 µM (inactive); in experiment [2], 32.7 µM (inactive); in [3], 17.1 µM (inactive); in experiment [4] it was 27.6 µM (inactive); in experiment [5] it was 12.6 µM; in [15] it was 20.9 µM (inactive). The GI50 in [6] is 20.6 µM (inactive); in experiment [7], 2.61 µM (inactive); in experiment [8], 19.6 µM (inactive); in [9], 22.8 µM (inactive); in experiment [10] it was 26.9 µM (inactive); in experiment [11] it was 36.9 µM (inactive). Moreover, the GI50 in experiment [16] is 43.4 µM (inactive); in experiment [12] it was 27 µM (inactive).
Consider `CN(Cc1cnc2nc(N)nc(N)c2n1)c1ccc(C(=O)NC(CCC(=O)O)C(=O)O)cc1` (stereo not drawn), for which the GI50 is 0.0384 µM (active) in experiment [1]; 4.07 µM (inactive) in [2]; less than 0.01 µM in experiment [5]; < 0.01 µM (active) in experiment [15]; < 0.0164 µM (active) in experiment [6]; 0.0205 µM (active) in experiment [8]. The GI50 is 5.38 µM (inactive) in [9]; 0.0792 µM (active) in experiment [10]; < 0.0448 µM (active) in experiment [11]; < 0.014 µM (active) in experiment [14]; > 100 µM (inactive) in experiment [16]; 1.24 µM (inactive) in experiment [12].
Take `C(=N\c1ccc(-c2cc(-c3ccccc3)nc3ccc4ccccc4c23)cc1)/c1ccccc1`: the GI50 in [1] was 13.6 µM (inactive); in experiment [3] it was 16 µM (inactive); in [4], 18.1 µM (inactive); in [5] it was 8.26 µM; in experiment [15], 9.48 µM (inactive); in experiment [6], 10.8 µM (inactive). Further, the GI50 in [7] is 24.4 µM (inactive); in experiment [8], 18.6 µM (inactive); in [9] it was 22.3 µM (inactive); in [10], 27.6 µM (inactive); in experiment [11] it was 26 µM (inactive); in experiment [14], 16.5 µM (inactive). Besides, the GI50 in [12] is 30.3 µM (inactive).
As to `CO[C@@]12C[C@@H](C)C3=CCC(C)=C3CC1=C(C)C(=O)O2`, the GI50 in experiment [2] was > 100 µM (inactive); in experiment [3] it was 50.8 µM (inactive); in [4], > 100 µM (inactive); in experiment [5], more than 100 µM; in [15], 50.8 µM (inactive); in experiment [6], > 100 µM (inactive). Moreover, the GI50 in [8] is 45.7 µM (inactive); in experiment [9] it was > 100 µM (inactive); in experiment [10], > 100 µM (inactive); in experiment [11], > 100 µM (inactive); in [16], > 100 µM (inactive); in experiment [12] it was 68.7 µM (inactive).
Regarding `NC(=O)C(=O)c1ncn(Cc2ccccc2)c1N`, the GI50 in experiment [1] was > 100 µM (inactive); in [3] it was > 100 µM (inactive); in experiment [4], > 100 µM (inactive); in experiment [5] it was more than 100 µM; in experiment [15], > 100 µM (inactive); in [6] it was > 100 µM (inactive). The GI50 in experiment [7], in [9], in experiment [10], in experiment [11], in [14] and in [16] was > 100 µM (inactive) throughout. The GI50 in [12] and in [13] was > 100 µM (inactive) in each case.
As for `CC1(C)OCC(C2OC3OC(C)(C)OC3C2c2ccccc2)O1` (stereo not drawn), the GI50 was 42.8 µM (inactive) in experiment [1]; 30.5 µM (inactive) in experiment [3]; 49 µM (inactive) in experiment [4]; 24.2 µM in experiment [5]; 18.3 µM (inactive) in [15]; 82.4 µM (inactive) in experiment [6]. The GI50 is 37 µM (inactive) in experiment [7]; 22.4 µM (inactive) in experiment [8]; 22.4 µM (inactive) in experiment [9]; 22.2 µM (inactive) in experiment [10]; 43 µM (inactive) in experiment [11]; 37.5 µM (inactive) in [14]. The GI50 in [16] is 22.1 µM (inactive); in [12], > 100 µM (inactive); in experiment [13], 38.2 µM (inactive).
Regarding `C#CCCCC(=C)C[C@H](OCc1ccccc1)[C@H]1OC(=O)[C@@H]1C`, the GI50 in experiment [1] was 56.4 µM (inactive); in experiment [2], > 100 µM (inactive); in [3], > 100 µM (inactive); in [4], > 100 µM (inactive); in experiment [5] it was 79.4 µM; in experiment [15], 66.1 µM (inactive). Also, the GI50 in [6] is 39 µM (inactive); in experiment [7], 22.9 µM (inactive); in experiment [9], 96.4 µM (inactive); in experiment [10] it was 36 µM (inactive); in [11], 31.8 µM (inactive); in experiment [14], 20.5 µM (inactive). Also, the GI50 in experiment [16] and in experiment [12] was > 100 µM (inactive) throughout.
Turning to `CC(C)C1=CC23CCC4C(C)(C(=O)O)CCCC4(C)C2CC1C1C(=O)N(CCCCCCN2C(=O)C4C5CC6C7(C)CCCC(C)(C(=O)O)C7CCC6(C=C5C(C)C)C4C2=O)C(=O)C13` (stereo not drawn), the GI50 in experiment [1] was 9.31 µM (inactive); in experiment [3] it was 7.29 µM (inactive); in [4], 7.4 µM (inactive); in experiment [5], 14.8 µM; in [15], 13.5 µM (inactive); in experiment [6], 11.4 µM (inactive). Also, the GI50 is 11.1 µM (inactive) in [7]; 6.17 µM (inactive) in experiment [8]; > 10 µM (inactive) in experiment [9]; 2.74 µM (inactive) in [10]; 9.2 µM (inactive) in experiment [11]; > 10 µM (inactive) in experiment [14]. Further, the GI50 was 13.8 µM (inactive) in [16] and 21.1 µM (inactive) in [13].
For the compound `CC[C@@]1(N(C)C)C(=O)OCc2c1cc1n(c2=O)Cc2cc3ccccc3nc2-1`, the GI50 in experiment [1] was 61 µM (inactive); in experiment [2], 20.3 µM (inactive); in [3] it was 18.5 µM (inactive); in [4] it was 45.9 µM (inactive); in experiment [5], 45.3 µM; in experiment [6], > 100 µM (inactive). Besides, the GI50 is 22.4 µM (inactive) in [9]; 16.6 µM (inactive) in experiment [10]; 16.9 µM (inactive) in [11]; 26.4 µM (inactive) in experiment [16]; 18.7 µM (inactive) in [12]; 18.9 µM (inactive) in experiment [13].
Consider `C=C(CC[C@@H](C)[C@H]1CC[C@@]2(C)C3=C(CC[C@]12C)[C@@]1(C)CC[C@H](O)[C@@H](C)C1CC3)C(C)C` (stereo partly drawn), for which the GI50 in experiment [1] is 1.2 µM (inactive); in experiment [2], 1.48 µM (inactive); in [3], 0.414 µM (active); in experiment [4] it was 1.23 µM (inactive); in [5] it was 1.2 µM; in experiment [15] it was 0.361 µM (active). In addition, the GI50 is 1.26 µM (inactive) in [6]; 1.17 µM (inactive) in [7]; 0.953 µM (active) in [8]; 1.81 µM (inactive) in [9]; 1.28 µM (inactive) in experiment [10]; 1.61 µM (inactive) in experiment [11]. Further, the GI50 in experiment [14] was 1.47 µM (inactive); in experiment [16], 1.56 µM (inactive); in experiment [12], 1.6 µM (inactive).
As to `COc1ccc(C(=O)Oc2c(C#N)sc3c2c(=O)n(-c2ccccc2)c(=S)n3-c2ccccc2)cc1`, the GI50 in experiment [1] is 30.1 µM (inactive); in experiment [3] it was 15.1 µM (inactive); in [4] it was 12.9 µM (inactive); in [5], 16.7 µM; in experiment [15], 22.2 µM (inactive); in experiment [6], 18.5 µM (inactive). For the same compound, the GI50 was > 10 µM (inactive) in [7]; 21 µM (inactive) in experiment [8]; 24.2 µM (inactive) in experiment [9]; 20.3 µM (inactive) in [10]; 24.7 µM (inactive) in [11]; 21.6 µM (inactive) in experiment [14]. Besides, the GI50 is 33.9 µM (inactive) in [12] and 33.6 µM (inactive) in [13].

The values above are taken from ChEMBL document CHEMBL1201862, “PubChem BioAssay data set” (2004).
